Data reported in PubChem BioAssay AID1259407 (Chemical Carcinogenesis Research Information System (CCRIS), 2018).
Activity calls are given as the source filed them. How the calls were made is not given here.

Test system: CCRIS mutagenicity, Ames/micronucleus/aberration tests
Experiment: CCRIS mutagenicity studies

Measured: mutagenic call

O=[N+]([O-])c1ccc2c(c1)Cc1ccccc1-2
active: End Point: IN VITRO CHROMOSOMAL ABERRATIONS, Test System: CHINESE HAMSTER LUNG (CHL) CELLS, Metabolic Activation: RAT, LIVER, S-9, KC-400 active; positive | End Point: IN VITRO MICRONUCLEUS, Test System: CHL/IU CELLS, Metabolic Activation: NONE active; positive | Test System: AMES SALMONELLA TYPHIMURIUM, Strain/Indicator: TA98 (1,8-DNP6), Metabolic Activation: NONE, Method: PREINCUBATION active; positive | Test System: AMES SALMONELLA TYPHIMURIUM, Strain/Indicator: TA98(1,8-DNP6), Metabolic Activation: NONE, Method: STANDARD PLATE active; positive | Test System: AMES SALMONELLA TYPHIMURIUM, Strain/Indicator: TA98 (NR), Metabolic Activation: NONE, Method: PREINCUBATION active; positive | Test System: AMES SALMONELLA TYPHIMURIUM, Strain/Indicator: TA98(NR), Metabolic Activation: NONE, Method: STANDARD PLATE active; positive | Test System: AMES SALMONELLA TYPHIMURIUM, Strain/Indicator: TA98 (NR), Metabolic Activation: RAT LIVER S-9 (10%), Method: PREINCUBATION active; positive | Test System: AMES SALMONELLA TYPHIMURIUM, Strain/Indicator: TA98 (NR), Metabolic Activation: RAT LIVER S-9, 3-METHYLCHOLANTHRENE (10%), Method: PREINCUBATION active; positive | Test System: AMES SALMONELLA TYPHIMURIUM, Strain/Indicator: TA98 (NR), Metabolic Activation: RAT LIVER S-9, BETA-NAPHTHAFLAVONE (10%), Method: PREINCUBATION active; positive | Test System: AMES SALMONELLA TYPHIMURIUM, Strain/Indicator: TA98(NR), Metabolic Activation: RAT LIVER S-9, PHENOBARBITAL (10%), Method: PREINCUBATION active; positive | Test System: AMES SALMONELLA TYPHIMURIUM, Strain/Indicator: TA98 (NR), Metabolic Activation: RAT LIVER S-9 PCB, 10%, Method: PREINCUBATION active; positive | Test System: AMES SALMONELLA TYPHIMURIUM, Strain/Indicator: TA98, Metabolic Activation: NONE, Method: SPIRAL ASSAY active; positive | Test System: AMES SALMONELLA TYPHIMURIUM, Strain/Indicator: TA98, Metabolic Activation: RAT, LIVER, S-9, AROCLOR 1254, Method: SPIRAL ASSAY active; positive | Test System: AMES SALMONELLA TYPHIMURIUM, Strain/Indicator: TA98, Metabolic Activation: RAT, LIVER, S-9, AROCLOR 1254, Method: STANDARD PLATE active; positive | Test System: AMES SALMONELLA TYPHIMURIUM, Strain/Indicator: TA98, Metabolic Activation: RAT, LIVER, S-9, PCB (10%), Method: PREINCUBATION active; positive | Test System: AMES SALMONELLA TYPHIMURIUM, Strain/Indicator: TA98, Metabolic Activation: S-9, Method: PREINCUBATION active; positive | Test System: AMES SALMONELLA TYPHIMURIUM, Strain/Indicator: TA98, Metabolic Activation: S-9, Method: STANDARD PLATE active; positive | Test System: AMES SALMONELLA TYPHIMURIUM, Strain/Indicator: TA100, Metabolic Activation: NONE, Method: PREINCUBATION active; positive | Test System: AMES SALMONELLA TYPHIMURIUM, Strain/Indicator: TA100, Metabolic Activation: NONE, Method: SPIRAL ASSAY active; positive | Test System: AMES SALMONELLA TYPHIMURIUM, Strain/Indicator: TA100, Metabolic Activation: RAT, LIVER, S-9, AROCLOR 1254, Method: SPIRAL ASSAY active; positive | Test System: AMES SALMONELLA TYPHIMURIUM, Strain/Indicator: TA100, Metabolic Activation: RAT, LIVER, S-9, AROCLOR 1254, Method: STANDARD PLATE active; positive | Test System: AMES SALMONELLA TYPHIMURIUM, Strain/Indicator: TA100, Metabolic Activation: S-9, Method: STANDARD PLATE active; positive | Test System: AMES SALMONELLA TYPHIMURIUM, Strain/Indicator: TA102, Metabolic Activation: NONE, Method: PREINCUBATION active; positive | Test System: AMES SALMONELLA TYPHIMURIUM, Strain/Indicator: TA1535, Metabolic Activation: NONE, Method: PREINCUBATION active; positive | Test System: AMES SALMONELLA TYPHIMURIUM, Strain/Indicator: TA1537, Metabolic Activation: NONE, Method: SPIRAL ASSAY active; positive | Test System: AMES SALMONELLA TYPHIMURIUM, Strain/Indicator: TA1537, Metabolic Activation: NONE, Method: STANDARD PLATE active; positive | Test System: AMES SALMONELLA TYPHIMURIUM, Strain/Indicator: TA1537, Metabolic Activation: RAT, LIVER, S-9, AROCLOR 1254, Method: SPIRAL ASSAY active; positive | Test System: AMES SALMONELLA TYPHIMURIUM, Strain/Indicator: TA1537, Metabolic Activation: RAT, LIVER, S-9, AROCLOR 1254, Method: STANDARD PLATE active; positive | Test System: AMES SALMONELLA TYPHIMURIUM, Strain/Indicator: TA1538, Metabolic Activation: NONE, Method: STANDARD PLATE active; positive | Test System: AMES SALMONELLA TYPHIMURIUM, Strain/Indicator: TA1975, Metabolic Activation: NONE, Method: PREINCUBATION active; positive | Test System: AMES SALMONELLA TYPHIMURIUM, Strain/Indicator: YG1020, Metabolic Activation: NONE, Method: PREINCUBATION active; positive | Test System: AMES SALMONELLA TYPHIMURIUM, Strain/Indicator: YG1024, Metabolic Activation: NONE, Method: PREINCUBATION active; positive | Test System: AMES SALMONELLA TYPHIMURIUM, Strain/Indicator: YG1025, Metabolic Activation: NONE, Method: PREINCUBATION active; positive | Test System: AMES SALMONELLA TYPHIMURIUM, Strain/Indicator: YG1029, Metabolic Activation: NONE, Method: PREINCUBATION active; positive | Test System: AMES SALMONELLA TYPHIMURIUM, Strain/Indicator: YG3001, Metabolic Activation: NONE, Method: PREINCUBATION active; positive | Test System: AMES SALMONELLA TYPHIMURIUM, Strain/Indicator: YG3002, Metabolic Activation: NONE, Method: PREINCUBATION active; positive | Test System: AMES SALMONELLA TYPHIMURIUM, Strain/Indicator: YG3003, Metabolic Activation: NONE, Method: PREINCUBATION active; positive | Test System: AMES SALMONELLA TYPHIMURIUM, Strain/Indicator: YG7112, Metabolic Activation: NONE, Method: PREINCUBATION active; positive | Test System: AMES SALMONELLA TYPHIMURIUM, Strain/Indicator: YG7113, Metabolic Activation: NONE, Method: PREINCUBATION active; positive | Test System: CHINESE HAMSTER OVARY, Strain/Indicator: CHO-K1-BH4 (HGPRT), Metabolic Activation: RAT, LIVER, S-9, AROCLOR, Method: SUSPENSION/PLATE active; positive | Test System: MOUSE LYMPHOMA, Strain/Indicator: L5178Y (TK+/TK-), Metabolic Activation: NONE, Method: SUSPENSION/PLATE active; positive | Test System: UDS RAT HEPATOCYTES, Strain/Indicator: THY INCORP, Metabolic Activation: NONE, Method: AUTORADIOGRAPHY (SERUM-FREE MEDIA) active; positive
inactive: End Point: IN VITRO CHROMOSOMAL ABERRATIONS, Test System: CHINESE HAMSTER LUNG (CHL) CELLS, Metabolic Activation: NONE inactive; negative | Test System: AMES SALMONELLA TYPHIMURIUM, Strain/Indicator: TA100(NR), Metabolic Activation: NONE, Method: STANDARD PLATE inactive; negative | Test System: AMES SALMONELLA TYPHIMURIUM, Strain/Indicator: TA100(TN5-1,8-DNP1012), Metabolic Activation: NONE, Method: STANDARD PLATE inactive; negative | Test System: AMES SALMONELLA TYPHIMURIUM, Strain/Indicator: TA1535, Metabolic Activation: NONE, Method: SPIRAL ASSAY inactive; negative | Test System: AMES SALMONELLA TYPHIMURIUM, Strain/Indicator: TA1535, Metabolic Activation: NONE, Method: STANDARD PLATE inactive; negative | Test System: AMES SALMONELLA TYPHIMURIUM, Strain/Indicator: TA1535, Metabolic Activation: RAT, LIVER, S-9, AROCLOR 1254, Method: SPIRAL ASSAY inactive; negative | Test System: AMES SALMONELLA TYPHIMURIUM, Strain/Indicator: TA1535, Metabolic Activation: RAT, LIVER, S-9, AROCLOR 1254, Method: STANDARD PLATE inactive; negative | Test System: E. COLI, Strain/Indicator: WP2 UVRA, Metabolic Activation: HAMSTER, LIVER, S-9, AROCLOR 1254, Method: STANDARD PLATE inactive; negative | Test System: E. COLI, Strain/Indicator: WP2 UVRA, Metabolic Activation: HAMSTER, LIVER, S-9, Method: STANDARD PLATE inactive; negative | Test System: E. COLI, Strain/Indicator: WP2 UVRA, Metabolic Activation: MOUSE, LIVER, S-9, AROCLOR 1254, Method: STANDARD PLATE inactive; negative | Test System: E. COLI, Strain/Indicator: WP2 UVRA, Metabolic Activation: MOUSE, LIVER, S-9, Method: STANDARD PLATE inactive; negative | Test System: E. COLI, Strain/Indicator: WP2 UVRA, Metabolic Activation: NONE, Method: STANDARD PLATE inactive; negative | Test System: E. COLI, Strain/Indicator: WP2 UVRA, Metabolic Activation: RAT, LIVER, S-9, AROCLOR 1254, Method: STANDARD PLATE inactive; negative | Test System: E. COLI, Strain/Indicator: WP2 UVRA, Metabolic Activation: RAT, LIVER, S-9, Method: STANDARD PLATE inactive; negative
